Data taken from patent US20200068890A1 (Person to Whom the Inventor is Obligated to Assign, priority 2017, published 2020).
Several values for one entry are separate records, joined by “and”; a condition that tells them apart may be missing. Equal entries are not always repeated.

Key:
[1] = tested on: Gram-positive and Gram-negative bacterial species; test: Broth microdilution MIC, panel summary; assay type: cell-based; details: read-out: MIC values
Experimental: Assays were carried out by a broth microdilution method using a 96-well plate according to guidelines defined by the European Committee on Antimicrobial Susceptibility Testing as described here. Overnight cultures of strains were grown in tryptic soy broth (TSB) at 37° C. The overnight cultures were diluted to a concentration of 1×10^6 bacteria/ml (OD600=0.01) in TSB media. To each well on 96 well plates, 100 μl of bacterially infected media at a concentration of 1×10^6/ml and compounds at various concentrations were added. An uninfected control (i.e. no bacteria) was also included. The plates were incubated at 37° C. wrapped in parafilm for 20 hrs. The growth was assessed by measuring the absorbance at 600 nm. The minimum inhibitory concentration (MIC) was determined to be the lowest concentration of compound that inhibits visible bacterial growth.

[2] = tested on: A. thaliana seedlings; test: In planta seedling development and root length on GM/MS media; assay type: in vivo; details: for Normalised root / Root Length: individual plants 1-20
Experimental: Gamborg modified/Murashige Skoog (GM/MS) media and soil were prepared as according to Table 6.
A. thaliana seeds were sterilised including a 15 min wash step in 10% (v/v) commercial bleach without the addition of detergents. All plants were grown in a controlled environment room (CER) at 22±5° C. with 16 hrs: 8 hrs light: dark, 50-60% humidity under cool-white fluorescent light. Plants grown on soil were regularly watered and relocated within the CER.
Basta was employed as a positive control at a final recommended concentration of 10 μg/mL (50 μM). Negative controls included 0% (v/v) DMSO (H2O) and 1% (v/v) DMSO (vehicle). Media was poured into 100 mL plates and allowed to set before adding 20 sterilised seeds per plate. Seeds were then stratified at 4° C. for 72 hrs in a dark room prior to relocation into a CER.
The resulting growth plates were monitored daily and allowed to grow in an upright position for up to 14 days post stratification to determine the average root length using ImageJ analysis. Experiments were carried out in triplicates. Results were statistically validated using t-tests employing GraphPad Prism.

[3] = tested on: human liver cells (HepG2); test: MTT viability assay; details: for % viability 1 / % viability 2 / % viability 3: 48 hrs
Experimental: (§1) Cells were harvested and resuspended in growth media (5-10 ml) to count. Cells were diluted to the appropriate concentration (5×10^3), and seeded into 96-well plates as follows: (a) 50 μl of cells per well, (b) 100 μl of growth media in the Blank wells, (c) 100 μl PBS in outer wells (to prevent dehydration of media from the cells). Cells were incubated overnight at 37° C. (5% CO2).
(§2) Compounds were prepared as serial dilutions in growth media. Each treatment concentration was performed in triplicate. 50 μl/well of prepared compound was added to cells.
(§3) A no treatment triplicate (100% viability) was also included by adding 50 μl of growth media to cells. Plates were returned to the incubator for 48 hrs.
(§4) MTT powder in 1×PBS was prepared at 5 mg/ml and filter sterilised. MTT was added to serum-free media to a final concentration of 1 mg/ml. 100 μl of the MTT solution (1 mg/ml) was added to each well, including 0 μM and blank wells. Plates were incubated at 37° C. in incubator for 3 hrs. Following incubation, the media was removed from wells without disrupting the purple crystals formed. 100 μl of DMSO was added to each well using a multichannel pipette. The plates were shaken on the plate shaker until all the crystals have dissolved. The absorbance was measured at 570 nm using a plate reader. The data was analysed using Microsoft Excel. For each treatment concentration the average was calculated, the blank was subtracted and the cell viability was determined as a percentage of the no treatment control (DMSO vehicle control).

[4] = tested on: human kidney cells (HEK293); test: MTT viability assay; details: for % Viability Remaining 1 / % Viability Remaining 2 / % Viability Remaining 3: 48 hrs
Experimental: as §1, §2, §3, §4

COc1ccccc1/C=C1\SC(=O)N(CC(=O)O)C1=O [Compound 3, (Z)-2-(5-(2-Methoxybenzylidene)-2,4-dioxothiazolidin-3-yl)acetic Acid]
MIC [1]: > 64 µg/mL
Normalised root ([2]; 15.6 μM in GM/MS media): 126.8 and 79.33 and 8.429 and 111.7 and 109.2 and 119.2 and 125.6 and 130.3 and 102.2 and 104.4 and 74.72 and 87.31 and 77.74 and 72.45 and 127.9 and 91.64 and 101.7 and 3.856 and 113.4 and 59.09
Root Length ([2]; 15.6 μM in GM/MS media): 4.242 cm and 2.654 cm and 0.282 cm and 3.737 cm and 3.653 cm and 3.988 cm and 4.202 cm and 4.361 cm and 3.42 cm and 3.494 cm and 2.5 cm and 2.921 cm and 2.601 cm and 2.424 cm and 4.28 cm and 3.066 cm and 3.403 cm and 0.129 cm and 3.794 cm and 1.977 cm
Normalised root ([2]; 31.3 μM in GM/MS media): 70.03 and 65.16 and 32.16 and 67.4 and 20.77 and 47.64
Root Length ([2]; 31.3 μM in GM/MS media): 2.343 cm and 2.18 cm and 1.076 cm and 2.255 cm and 0.695 cm and 1.594 cm
Normalised root ([2]; 62.5 μM in GM/MS media): 64.32 and 82.41 and 69.91 and 82.88 and 64.47 and 34.82 and 79.21 and 80.49 and 78.28 and 63.37 and 57.96 and 45.82 and 15.99 and 51.14 and 20.03 and 32.64
Root Length ([2]; 62.5 μM in GM/MS media): 2.152 cm and 2.757 cm and 2.339 cm and 2.773 cm and 2.157 cm and 1.165 cm and 2.65 cm and 2.693 cm and 2.619 cm and 2.12 cm and 1.939 cm and 1.533 cm and 0.535 cm and 1.711 cm and 0.67 cm and 1.092 cm
Normalised root ([2]; 125 μM in GM/MS media): 33.06 and 69.91 and 19.58 and 22.27 and 3.796 and 61.99 and 8.578 and 23.43 and 41.58 and 46.33 and 18.05 and 12.76 and 7.532 and 1.225 and 12.64 and 3.945 and 21.19 and 14.91 and 8.907 and 2.032
Root Length ([2]; 125 μM in GM/MS media): 1.106 cm and 2.339 cm and 0.655 cm and 0.745 cm and 0.127 cm and 2.074 cm and 0.287 cm and 0.784 cm and 1.391 cm and 1.55 cm and 0.604 cm and 0.427 cm and 0.252 cm and 0.041 cm and 0.423 cm and 0.132 cm and 0.709 cm and 0.499 cm and 0.298 cm and 0.068 cm
Normalised root ([2]; 250 μM in GM/MS media): 18.35 and 35.03 and 19.34 and 7.741 and 3.318 and 12.7 and 3.049 and 7.532 and 27.32 and 17.58 and 13.9 and 3.916 and 9.923 and 8.07 and 5.619 and 3.497 and 4.513 and 2.66 and 3.378 and 3.676
Root Length ([2]; 250 μM in GM/MS media): 0.614 cm and 1.172 cm and 0.647 cm and 0.259 cm and 0.111 cm and 0.425 cm and 0.102 cm and 0.252 cm and 0.914 cm and 0.588 cm and 0.465 cm and 0.131 cm and 0.332 cm and 0.27 cm and 0.188 cm and 0.117 cm and 0.151 cm and 0.089 cm and 0.113 cm and 0.123 cm
Normalised root ([2]; 500 μM in GM/MS media): 2.75 and 4.065 and 1.674 (2×) and 1.644 and 1.315 and 2.331 (2×) and 0.7472 and 2.272 and 2.062 and 1.076 and 1.435 and 2.63 and 2.092 and 1.584 and 5.021 and 1.375
Root Length ([2]; 500 μM in GM/MS media): 0.092 cm and 0.136 cm and 0.056 cm (2×) and 0.055 cm and 0.044 cm and 0.078 cm (2×) and 0.025 cm and 0.076 cm and 0.069 cm and 0.036 cm and 0.048 cm and 0.088 cm and 0.07 cm and 0.053 cm and 0.168 cm and 0.046 cm
seedling development ([2]; concentrations 125 μM and higher): did not develop past the point of hypocotyl formation
development and growth of A. thaliana (leaves) ([2]; highest concentrations tested): lack of any chlorophyll containing leaves
% viability 1 ([3]; HepG2, 12.5 μM): 110%
% viability 2 ([3]; HepG2, 12.5 μM): 104%
% viability 3 ([3]; HepG2, 12.5 μM): 92.2%
% viability 1 ([3]; HepG2, 25 μM): 80.2%
% viability 2 ([3]; HepG2, 25 μM): 86.4%
% viability 3 ([3]; HepG2, 25 μM): 91.4%
% viability 1 ([3]; HepG2, 50 μM): 106.4%
% viability 2 ([3]; HepG2, 50 μM): 89.9%
% viability 3 ([3]; HepG2, 50 μM): 98.7%
% viability 1 ([3]; HepG2, 100 μM): 80.2%
% viability 2 ([3]; HepG2, 100 μM): 89.3%
% viability 3 ([3]; HepG2, 100 μM): 82.2%
% viability 1 ([3]; HepG2, 200 μM): 84.2%
% viability 2 ([3]; HepG2, 200 μM): 96.5%
% viability 3 ([3]; HepG2, 200 μM): 92.9%
% viability 1 ([3]; HepG2, 400 μM): 76.2%
% viability 2 ([3]; HepG2, 400 μM): 87.9%
% viability 3 ([3]; HepG2, 400 μM): 87.5%
toxicity to HepG2 cells (in words) ([3]; HepG2, MTT, up to 400 μM (Defensin 100 μM)): effectively nontoxic
% Viability Remaining 1 ([4]; HEK293, 12.5 μM): 73.4%
% Viability Remaining 2 ([4]; HEK293, 12.5 μM): 104%
% Viability Remaining 3 ([4]; HEK293, 12.5 μM): 99.0%
% Viability Remaining 1 ([4]; HEK293, 25 μM): 100%
% Viability Remaining 2 ([4]; HEK293, 25 μM): 86.3%
% Viability Remaining 3 ([4]; HEK293, 25 μM): 83.8%
% Viability Remaining 1 ([4]; HEK293, 50 μM): 78.5%
% Viability Remaining 2 ([4]; HEK293, 50 μM): 80.4%
% Viability Remaining 3 ([4]; HEK293, 50 μM): 92.2%
% Viability Remaining 1 ([4]; HEK293, 100 μM): 84.2%
% Viability Remaining 2 ([4]; HEK293, 100 μM): 93.0%
% Viability Remaining 3 ([4]; HEK293, 100 μM): 91.6%
% Viability Remaining 1 ([4]; HEK293, 200 μM): 82.5%
% Viability Remaining 2 ([4]; HEK293, 200 μM): 89.8%
% Viability Remaining 3 ([4]; HEK293, 200 μM): 94.3%
% Viability Remaining 1 ([4]; HEK293, 400 μM): 72.3%
% Viability Remaining 2 ([4]; HEK293, 400 μM): 106%
% Viability Remaining 3 ([4]; HEK293, 400 μM): 85.6%
toxicity to HEK293 cells (in words) ([4]; HEK293, MTT, up to 400 μM (Defensin 100 μM)): effectively nontoxic
